Entries after “also recorded” stand apart in the source; their conditions may differ. Where a SMILES comes first, the peptide text is derived from it. Where no end group is shown, it is not given here. [ ]: non-standard residue; d: D form. The star is where a group is joined. APBA = (2-acetyl-5-(3-(2-iodoacetamido)propoxy)phenyl)boronic acid, Cys modified with it (Cm in name), CC(=O)c1ccc(OCCCNC(=O)C*)cc1B(O)O; X1 = CC(=O)c1ccc(OCCCNC(=O)C*)cc1B(O)O; Dap = NC[C@H](N)C(=O)O; Cam = NC(=O)C*
What was measured:
[1] = target: streptavidin (Streptomyces avidinii, UniProt P22629); type: binding; conditions: for fluorescence brightness of streptavidin beads on addition of BSA: BSA 1 mg/mL; for fluorescence staining of streptavidin beads after surface lysine acetylation: beads treated with Ac-NHS, 3 mM; for fluorescence staining of streptavidin-coated beads: excess biotin present; for effect of biotin on fluorescence staining of streptavidin-coated beads: with and without biotin; for staining of streptavidin-coated beads by SrtA screen peptides: even at 25 μm; for staining of streptavidin beads without SrtA coating: streptavidin beads alone, no SrtA
[2] = target: T1, sortase A (SrtA) (Staphylococcus aureus, UniProt Q2FV99); type: binding, S. aureus; conditions: for staining of SrtA-coated beads in the presence of BSA: 10 mg/mL BSA; for fluorescence staining of SrtA-coated beads: peptide at 25 μM
[3] = target: T1, sortase A (SrtA); conditions: competition with DMMA
Text: To probe the peptides' binding site on SrtA, a competition experiment was designed using a known small molecule inhibitor of SrtA, DMMA (FIG. 8E).

Sequence of streptavidin (P22629 37-163 limits assumed): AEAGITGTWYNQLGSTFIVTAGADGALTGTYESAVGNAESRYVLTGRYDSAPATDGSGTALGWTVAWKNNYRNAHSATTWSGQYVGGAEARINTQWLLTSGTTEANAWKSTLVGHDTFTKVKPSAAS
T1 sequence (Q2FV99 whole entry): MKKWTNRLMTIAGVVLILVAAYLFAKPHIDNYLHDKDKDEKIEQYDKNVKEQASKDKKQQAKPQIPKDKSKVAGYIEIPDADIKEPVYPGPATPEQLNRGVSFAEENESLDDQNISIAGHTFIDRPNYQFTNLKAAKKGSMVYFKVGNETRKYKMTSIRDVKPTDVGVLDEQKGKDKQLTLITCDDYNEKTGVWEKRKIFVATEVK

CC(=O)c1ccc(OCCCNC(=O)CSC[C@H](NC(=O)[C@H](C)N)C(=O)N[C@H](C(=O)N2CCC[C@H]2C(=O)N[C@@H](CCCNC(=N)N)C(=O)N[C@@H](CO)C(=O)N[C@@H](C)C(=O)N[C@@H](CC(N)=O)C(=O)N[C@@H](Cc2ccc(O)cc2)C(=O)N[C@@H](CSCC(=O)NCCCOc2ccc(C(C)=O)c(B(O)O)c2)C(=O)NCC(=O)NCC(=O)NCC(=O)N[C@@H](CN)C(N)=O)[C@@H](C)O)cc1B(O)O [SA1, ACmTPRSANYCmGGGDap] (H-AC(X1)TPRSANYC(X1)GGG[Dap]-NH2; N-terminus and C-terminus assumed)
fluorescence brightness of streptavidin beads on addition of BSA [1]: minimally affected
fluorescence staining of streptavidin beads after surface lysine acetylation [1]: completely abolished the fluorescence staining
fluorescence staining of streptavidin-coated beads [1]: fluorescence staining of the beads at low micromolar concentrations
effect of biotin on fluorescence staining of streptavidin-coated beads [1]: marginal differences in fluorescence intensity with and without biotin

CC(=O)c1ccc(OCCCNC(=O)CSC[C@H](NC(=O)[C@H](C)N)C(=O)N[C@@H](CC(=O)O)C(=O)NCC(=O)N[C@@H](CCCNC(=N)N)C(=O)N2CCC[C@H]2C(=O)N[C@@H](CC(=O)O)C(=O)N[C@@H](CCCNC(=N)N)C(=O)N[C@@H](C)C(=O)N[C@@H](CSCC(=O)NCCCOc2ccc(C(C)=O)c(B(O)O)c2)C(=O)NCC(=O)NCC(=O)NCC(=O)N[C@@H](CN)C(N)=O)cc1B(O)O [SA2, ACmDGRPDRACmGGGDap] (H-AC(X1)DGRPDRAC(X1)GGG[Dap]-NH2; N-terminus and C-terminus assumed)
fluorescence brightness of streptavidin beads on addition of BSA [1]: minimally affected
fluorescence staining of streptavidin beads after surface lysine acetylation [1]: greatly reduced the fluorescence staining
fluorescence staining of streptavidin-coated beads [1]: fluorescence staining of the beads at low micromolar concentrations
effect of biotin on fluorescence staining of streptavidin-coated beads [1]: marginal differences in fluorescence intensity with and without biotin

CC(=O)c1ccc(OCCCNC(=O)CSC[C@H](NC(=O)[C@H](C)N)C(=O)N[C@@H](Cc2c[nH]cn2)C(=O)N2CCC[C@H]2C(=O)N[C@H](C(=O)N[C@@H](CO)C(=O)NCC(=O)N[C@@H](CCC(N)=O)C(=O)N[C@@H](CCCCN)C(=O)N[C@@H](CSCC(=O)NCCCOc2ccc(C(C)=O)c(B(O)O)c2)C(=O)NCC(=O)NCC(=O)NCC(=O)N[C@@H](CN)C(N)=O)C(C)C)cc1B(O)O [W1, ACmHPVSGQKCmGGGDap] (H-AC(X1)HPVSGQKC(X1)GGG[Dap]-NH2)
staining of streptavidin-coated beads by SrtA screen peptides [1]: fail to stain streptavidin-coated beads
staining of streptavidin beads without SrtA coating [1]: little binding to the agarose beads
staining of SrtA-coated beads in the presence of BSA [2]: greater inhibition was observed
fluorescence staining of SrtA-coated beads [2]: strong fluorescence staining of the SrtA-coated beads
effect of DMMA addition on SrtA binding [3]: no inhibition of the SrtA binding

CC(=O)c1ccc(OCCCNC(=O)CSC[C@H](NC(=O)[C@H](C)N)C(=O)N[C@@H](CC(C)C)C(=O)N[C@@H](CC(N)=O)C(=O)N[C@@H](CO)C(=O)N[C@@H](CO)C(=O)N[C@@H](CCC(N)=O)C(=O)N2CCC[C@H]2C(=O)N[C@@H](CO)C(=O)N[C@@H](CSCC(=O)NCCCOc2ccc(C(C)=O)c(B(O)O)c2)C(=O)NCC(=O)NCC(=O)NCC(=O)N[C@@H](CN)C(N)=O)cc1B(O)O [W2, ACmLNSSQPSCmGGGDap] (H-AC(X1)LNSSQPSC(X1)GGG[Dap]-NH2; N-terminus and C-terminus assumed)
staining of streptavidin-coated beads by SrtA screen peptides [1]: fail to stain streptavidin-coated beads
staining of streptavidin beads without SrtA coating [1]: little binding to the agarose beads
staining of SrtA-coated beads in the presence of BSA [2]: effective binding; also recorded: stain the SrtA coated beads
fluorescence staining of SrtA-coated beads [2]: strong fluorescence staining of the SrtA-coated beads
effect of DMMA addition on SrtA binding [3]: binds the SrtA surface instead of the catalytic site; also recorded: no inhibition of the SrtA binding

ACmIQKNTTTCmGGGDap (AC(APBA)IQKNTTTC(APBA)GGG[Dap]; not fully specified (residue 14); also: APBA dimer modification, fluorescent label on Dap14) [W3]
staining of streptavidin-coated beads by SrtA screen peptides [1]: fail to stain streptavidin-coated beads
staining of streptavidin beads without SrtA coating [1]: no fluorescence staining of the streptavidin beads alone
fluorescence staining of SrtA-coated beads [2]: weak fluorescence staining of SrtA-coated beads; also recorded: much lower fluorescence staining of the beads

ACmTPNKTPKCmGGGDap (AC(APBA)TPNKTPKC(APBA)GGG[Dap]; not fully specified (residue 14); also: APBA dimer modification, fluorescent label on Dap14) [W4]
staining of streptavidin-coated beads by SrtA screen peptides [1]: fail to stain streptavidin-coated beads
staining of streptavidin beads without SrtA coating [1]: no fluorescence staining of the streptavidin beads alone
fluorescence staining of SrtA-coated beads [2]: weak fluorescence staining of SrtA-coated beads; also recorded: much lower fluorescence staining of the beads

AcmDGRPDRACmGGGDap (AC(Cam)DGRPDRAC(APBA)GGG[Dap]; not fully specified (residue 14); also: fluorescent label on Dap, identity not given here) [SA2-IA, reference compound]
fluorescence staining of streptavidin-coated beads [1]: failed to stain the streptavidin beads

AcmTPRSANYCmGGGDap (AC(Cam)TPRSANYC(APBA)GGG[Dap]; not fully specified (residue 14); also: fluorescent label on Dap, identity not given here) [SA1-IA, reference compound]
fluorescence staining of streptavidin-coated beads [1]: failed to stain the streptavidin beads

Source: US12116698B1, “Protein surface recognition via chemically enhanced phage display” (The Trustees of Boston College, priority 2019, dated 2024)
